Test results: patent US10786522B2, “Compositions that include anthocyanidins and methods of use” (Maqui NewLife S.A., priority 2009, dated 2020)
Marks after values point to notes of the source that are not given here.

Key:
Human T cells [1] = assay: INF-γ production in freshly isolated human T cells (ELISA); format: cell-based; details: 48 hrs
Protocol: (§1) The effect of delphinidin on IL-2 and INF-γ production was also assayed on freshly isolated human T cells. Human T cells were isolated from blood of healthy volunteers using Lymphoprep reagent. T cells (1×10^6) in RMPI medium were incubated for 48 hrs at 37° C., in 5% CO2 in the presence of a vehicle control solution; 50 μM delphinidin; 50 μM delphinidin+1 μM BTP-2; 50 μM delphinidin+5 μM BTP-2; 50 μM delphinidin+10 μM BTP-2; 1 μM BTP-2; 5 μM. BTP-2; or 10 μM BTP-2. Then the supernatants were collected and analyzed using commercial ELISA kit (Becton Dickinson, USA) to measure IL-2 and INF-γ production according to the supplier's directions.

Jurkat T cells [2] = assay: Calcium entry (SOCE) in Jurkat T cells after addition of CaCl2; format: cell-based
Protocol: To measure calcium entry after 200 seconds, when the levels of calcium returned to the baseline, 0.9 mM of CaCl2 was added, and the fluxes of Ca^2+ were measured as ratio of excitation ratio at 340 and 380 nm, and emission at 509 nm in a spectrofluorimeter during 150 seconds.
4×10^6 FURA 2-AM-loaded Jurkat T cells were incubated in HBSS calcium free medium. The cells were incubated in 50 uM delphinidin or 50 uM delphinidin plus 10 μM BTP-2 and the fluxes of Ca^2+ were measured as ratio of excitation at 340 and 380 nm, and emission at 509 nm, at 37° C. in a spectrofluorimeter (LS55, PerkinElmer).

Human T cells [3] = assay: IL-2 production in freshly isolated human T cells (ELISA); format: cell-based; details: Table 7, 48 hrs
Protocol: as §1
We evaluated the effect of a combination of delphinidin and andandrographolide on IL-2 production in both freshly harvested human T cells and the Jurkat cell line. Andrographolide was prepared according to the method described in Example 4. Human T cells were isolated from blood of healthy volunteers using Lymphoprep reagent. T cells (1×10^6) in RMPI medium were incubated for 48 hrs at 37° C., in 5% CO2 in the presence of a vehicle control solution; 5 nM andrographolide; 50 μM delphinidin; or 5 nM andrographolide plus 50 μM delphinidin. Then the supernatants were collected and analyzed using commercial ELISA kit (Becton Dickinson, USA) to measure IL-2 production according to the supplier's directions.

Sprague Dawley rats = assay: Acute plantar inflammation model (carragenin) in rats; format: in vivo, rat; details: 1% carragenin, 6 hrs; anthocyanidins 35 mg/kg, diclofenac 2 mg/kg
Protocol: We assayed the effect of anthocyanidins on inflammation in vivo in an acute plantar inflammation model. Inflammation was induced in Sprague Dawley rats (200 g) using 1% carragenin (Sigma-Aldrich). The animals were treated with 35 mg/kg of anthocyanidins rich in […] (prepared according to the method descirbed in Example 1) or with diclofenac (2 mg/kg). The diameter of the treated legs was measured with a digital caliper over 6 hrs.

PPAR-γ = assay: PPAR-γ-Luc reporter assay in HL-60 cells; format: cell-based, Human; details: control substances, 12 h, concentration not given
Protocol: We examined the effect of delphindin-rich anthocyanidins on PPAR-γ activation. HL-60 cells in IMDM medium were transfected with the reporter vectors PPAR-γ-Luc (5 μg) (Panomics) and TK-RL (1 μg) (Promega) using Fugene 6 reagent (Roche), and cultured for 24 hr. Then, the cells were incubated for 12 h in 0.175, 1.75, or 17.5 μg/ml of delphindin-rich anthocyanidins, phorbol myristate acetate (PMA), 15-deoxi-d 12,14-prostaglandin J2 (PGj2), or tumor necrosis factor alpha (TNFα) as controls. Luciferase activity was measured using the Dual-Luciferase Reporter Assay kit (DLR) from Promega in a luminometer (Luminoskan).

Jurkat T cells [4] = assay: Calcium release in Jurkat T cells in HBSS calcium free medium; format: cell-based; details: 50 or 100 uM U73122 for 10 minutes prior to 50 uM delphinidin
Protocol: To measure calcium release, 4×10^6 FURA 2-AM-loaded Jurkat T cells were incubated in HBSS calcium free medium as decribed in Example 6. The cells were incubated in 50 uM delphinidin, or in 50 uM delphinidin and 10 μM N-[4-[3,5-bis(trifluoromethyl)-1H-pyrazol-1-yl]phenyl]-4-methyl-1,2,3-thiadiazole-5-carboxamide (BTP-2, a Store-Operated Calcium Entry (SOCE) inhibitor). The release of Ca^2+ was measured as ratio of excitation at 340 and 380 nm, and emission at 509 nm, for 200 seconds, at 37° C., in a spectrofluorimeter (LS55, PerkinElmer).
4×10^6 FURA 2-AM-loaded Jurkat T cells were incubated in HBSS calcium free medium. The cells were then incubated in 50 uM delphinidin and the fluxes of Ca^2+ were measured as ratio of excitation at 340 and 380 nm, and emission at 509 nm, at 37° C. in a spectrofluorimeter (LS55, PerkinElmer).
4×10^6 FURA 2-AM-loaded Jurkat T cells were incubated in HBSS calcium free medium. The cells were then treated with vehicle alone or 50 or 100 uM U73122 for 10 minutes prior to incubation in 50 uM delphinidin. Ca^2+ flux was measured as ratio of excitation at 340 and 380 nm, and emission at 509 nm, at 37° C. in a spectrofluorimeter (LS55, PerkinElmer).

[5] = 1 μM BTP-2, alone or with 50 μM delphinidin
[6] = 5 μM BTP-2, alone or with 50 μM delphinidin
[7] = 10 μM BTP-2, alone or with 50 μM delphinidin

Cc1nnsc1C(=O)Nc1ccc(-n2nc(C(F)(F)F)cc2C(F)(F)F)cc1 [BTP-2, N-[4-[3,5-bis(trifluoromethyl)-1H-pyrazol-1-yl]phenyl]-4-methyl-1,2,3-thiadiazole-5-carboxamide]
Average INF-γ production (Human T cells [1]; [5]): 240 pg/mL
Percentage vs. control (INF-γ) (Human T cells [1]; [5]): 64.9%
Average INF-γ production (Human T cells [1]; [6]): 390 pg/mL
Percentage vs. control (INF-γ) (Human T cells [1]; [6]): 105.4%
Average INF-γ production (Human T cells [1]; [7]): 140 pg/mL
Percentage vs. control (INF-γ) (Human T cells [1]; [7]): 37.8%
delphinidin-induced calcium influx in the presence of inhibitor (FIG. 2A, 2B) (Jurkat T cells [2]; delphinidin 50 μM plus BTP-2 10 μM): reduced
effect on calcium entry and release, result in words (Jurkat T cells [2]; delphinidin 50 μM, BTP-2 10 μM): inhibited the entry, but not the release
Average IL-2 production (Human T cells [3]; [5]): 0 pg/mL
Average IL-2 production (Human T cells [3]; [6]): 0 pg/mL
Average IL-2 production (Human T cells [3]; [7]): 0 pg/mL

O=C(O)Cc1ccccc1Nc1c(Cl)cccc1Cl [Diclofenac, diclofenac]
Average ABC0-6 (area under the curve of the diameter of the treated legs) (Sprague Dawley rats): 12.5** mm*hr
Decrease percentage compared to control (ABC0-6) (Sprague Dawley rats): 37.5%

CCCCC/C=C/C=C1/C(=O)C=C[C@@H]1C/C=C\CCCC(=O)O [PGj2, 15-deoxi-d 12,14-prostaglandin J2]
Average percentage activity of control [PPAR-γ-Luc/TK-RL] ± SD (PPAR-γ): 256.8 ± 126.9%

COc1ccc2c(c1)CC[C@@H]1[C@@H]2CC[C@]2(C)[C@@H](NCCCCCCN3C(=O)C=CC3=O)CC[C@@H]12 [U73122, reference compound]
delphinidin induced calcium flux after pretreatment (FIG. 3) (Jurkat T cells [4]): dose-dependent reduction
